Results published in article PMC5766630, “Non-estrogenic Xanthohumol Derivatives Mitigate Insulin Resistance and Cognitive Impairment in High-Fat Diet-induced Obese Mice” (Scientific Reports, 2018).

How the values were obtained:
[1] = test system: C57BL/6J mice fed a high-fat diet; experiment: Glucose tolerance test; assay type: in vivo, mouse; settings: 30 mg/kg/day, 6 h fast, glucose 2 g/kg i.p., n = 5; for Glucose tolerance test AUC, decrease compared with control, 4 weeks: 4 weeks of feeding; for Glucose tolerance test AUC, decrease compared with control, 11 weeks: 11 weeks of feeding
Description: Glucose tolerance tests were conducted after 4 and 11 weeks of feeding the experimental diets. Five mice from each treatment group were used in each glucose tolerance assay. Mice were fasted for 6 h prior to baseline blood glucose testing. Blood was collected from the mice by tail puncture, and glucose measurements were taken using a One Touch UltraMini glucometer (LifeScan, Inc., Milpitas, CA, USA). Mice were weighed and then given an i.p. injection of glucose equal to 2 g/kg body weight. Glucose readings were taken at 0 minutes (prior to glucose injection), and at 15 min, 30 min, 1 h, and 2 h after glucose injection.
Body weight, food intake, and metabolic measurements: data were analyzed using a one-way ANOVA in PROC GLM for single measures within animals (i.e., liver, plasma, and muscle metabolic measures) and a repeated-measures-in-time design ANOVA in PROC MIXED for repeated measures within animals (i.e., body weight, feed intake, and feed efficiency). The area-under-the-curve (AUC) for the glucose tolerance tests were calculated using the trapezoidal rule. Before statistical analysis, data were examined for variance homogeneity and normality. To achieve normality, liver, plasma, and muscle XN data and plasma insulin data were natural log-transformed. For statistical comparisons, the control group was compared with each XN metabolite group.

HepG2 cells = experiment: MTT cell viability assay, HepG2; assay type: cell-based, human; settings: 24 h exposure, vs vehicle-treated control cells
Description: For cell viability experiments using the MTT assay, mouse C2C12 skeletal muscle myoblasts (ATCC; Manassas, VA, USA) and the human hepatocyte cell line, HepG2 (ATCC; Manassas, VA, USA), were plated in 96-well plates at a density of 4,000 to 10,000 cells per well in 200 μL of DMEM medium supplemented with 10% FBS, 1% glutamine, 1 mM of sodium pyruvate, 100 units/mL penicillin, and 100 μg/mL streptomycin. After incubating 48 h, the medium was removed and the cells were treated with fresh solutions of various concentrations of XN, DXN or TXN in phenol red-free DMEM plus supplements. The final concentrations of XN, DXN, TXN were 1, 2, 5, 8, 10, 25, or 50 μM, in quadruplicate wells. The plates were then incubated for 1 h (for C2C12) or 24 h for HepG2. After removing the medium, the cells were incubated for 2 h with a 0.5 mg/mL solution of MTT in phenol red-free culture medium. After removing the medium and adding a solution of acidified isopropanol to each well, the absorbance of each well was measured at 570 nm by using a spectrometer (SpectraMax 190, Molecular Devices, Sunnyvale, CA, USA). Cell viability of compound-treated cells was calculated as % absorbance of vehicle-treated control cells (Supplementary Fig. S1a and S1b).

[2] = test system: C57BL/6J mice fed a high-fat diet; experiment: Water maze: spatial learning and memory; assay type: in vivo, mouse; settings: for Reached platform location faster than control (latency to first cross), probe trial: probe trial 24 h after last hidden platform trial; for Number of mice that spent more time in the correct quadrant than in any other quadrant / Number of mice that reached the platform location within 35 seconds: probe trial; for Number of mice that spent more time in the correct quadrant than in any other quadrant: control 3 out of 12; for Number of mice that reached the platform location within 35 seconds: control 5 out of 12; for Number of mice that reached the hidden platform at least twice within 50 seconds: trials 6 to 8, control 3 out of 12
Description: After 13 weeks of feeding the experimental diets, general task learning, spatial learning and memory, and long-term spatial memory retention were tested using the water maze, as previously described[97],[98]. Briefly, the water maze consisted of a circular pool, filled with water (24 °C) made opaque white with non-toxic tempera paint (Prang, Dixon Ticonderoga Company, Heathrow, FL, USA). Spatial cues consisted of figures of geometric shape and other items such as toys and pieces of cloth. The cues were placed on the walls of both the room and the sides of the tank and were present throughout all water maze trials. All trials consisted of a maximum of 60 s in the water searching for the platform and 10 s on the platform. […] Trials on the same day were separated by 10 min. Mice were first trained to locate a visible escape platform (plexiglass circle, 12 cm diameter) submerged 2 cm below the surface of the water, by the use of a cue (a colored cylinder, 2.5 cm radius, 8 cm height) during the visible platform trials (1–2). The location of the platform during visible platform trials was moved between trials to avoid procedural biases in task learning to a specific quadrant. Subsequent to the visible platform training, mice were trained to locate the platform without a visible cue during the hidden platform trials (3–8), which required the mice to rely on extra-maze cues for spatial reference and orientation. To analyze learning curves, time to reach the platform (latency) and swim speeds were assessed. Spatial memory retention was assessed 24 h following the conclusion of the eighth trial of hidden platform training in the probe trial (no platform). For data analysis, the pool was divided conceptually into four quadrants. Time spent searching in the target quadrant compared to the time spent in the three non-target quadrants and the latency to the first crossing of the platform location were analyzed. Following the probe trial, mice were administered two additional visible platform trials. Thigmotaxis, a tendency to remain close the walls, is commonly used as an index of anxiety in mice. For thigmotaxis, we analyzed the time (%) mice spent swimming in the outer part of the pool (<10 cm from edge of pool) during the visible trials. Water maze performance was tracked and analyzed using Ethovision software set at 6 samples/s (Noldus Information Technology, Leesburg, VA). Heat map images were generated using EthoVision Heatmap Generator software and representative images were selected from mice closest to the group mean values for time spent in the quadrant target.
Water maze learning curves: data, except for spatial learning, were analyzed using a one-way ANOVA for single measures within animals and a repeated-measures-in-time design ANOVA for repeated measures within animals. To evaluate spatial learning, we first compared at each session the control versus each XN metabolite group. For further analysis of spatial learning, the first 3 sessions were used for training of spatial learning and the last 3 session for spatial learning. […] To show spatial learning, mice had to reach the platform during the last 3 evaluation sessions at least twice within 50 seconds. Fisher’s exact test was used to compare control versus each XN metabolite group.

| SMILES | Glucose tolerance test AUC, decrease compared with control, 4 weeks [1] [%] | Glucose tolerance test AUC, decrease compared with control, 11 weeks [1] [%] | HepG2 cell viability (MTT), 1–25 µM (HepG2 cells) | Slower swim speed versus HFD only ([2]; during the hidden platform trials) [%] | Reached hidden platform faster than HFD only, average of trials 6 to 8 ([2]; hidden platform) [%] | Reached platform location faster than control (latency to first cross), probe trial [2] [%] | Number of mice that spent more time in the correct quadrant than in any other quadrant [2] | Number of mice that reached the platform location within 35 seconds [2] | Number of mice that reached the hidden platform at least twice within 50 seconds [2] | Reached hidden platform faster than HFD only, trial 6 ([2]; hidden platform) [%] | Reached hidden platform faster than HFD only, trial 8 ([2]; hidden platform) [%] | Reached hidden platform faster than HFD only, first hidden platform trial (trial #3) ([2]; hidden platform trial 3) [%] | Reached visible platform faster than control, first trial ([2]; visible platform trial 1, HFD mice, 30 mg/kg/day, 13 weeks) [%] | More time in the correct (Target) quadrant than control ([2]; 60-s probe trial) [%] | Reached hidden platform faster than HFD only, trial 7 ([2]; hidden platform) [%] |
| --- | --- | --- | --- | --- | --- | --- | --- | --- | --- | --- | --- | --- | --- | --- | --- |
| COc1cc(O)c(CC=C(C)C)c(O)c1C(=O)CCc1ccc(O)cc1 [DXN, α,β-Dihydroxanthohumol] | 46 | 35 | did not alter cell viability | 10 | 28 | 58 | 9 out of 12 | all but one | 9 out of 12 |  |  |  |  |  |  |
| COc1cc(O)c(CCC(C)C)c(O)c1C(=O)CCc1ccc(O)cc1 [TXN, tetrahydroxanthohumol] | 61 | 45 | did not alter cell viability |  | 45 | 45 | all but one | all but one | all | 44 | 35 | 18 | 24 |  |  |
| COc1cc(O)c(CC=C(C)C)c(O)c1C(=O)/C=C/c1ccc(O)cc1 [XN, 3′-[3,3-dimethylallyl]-2′,4′,4-trihydroxy-6′-methoxychalcone] | 43 | 12 | did not alter cell viability |  |  | 45 | all but one | all but one | all | 47 | 49 |  |  | 6.8 | 43 |
